One experiment has as its target T1, DYRK1A (Homo sapiens, UniProt Q13627).
T1 construct: full-length human kinases from Carna Biosciences; purchased Carna Biosciences 04-130
As to the kind of experiment: Kinase TR-FRET assay, DYRK1A. The experiment is classed as biochemical.

A further experiment has as its target T2, DYRK1B (Homo sapiens, UniProt Q9Y463).
T2 construct: full-length human kinases from Carna Biosciences; purchased Carna Biosciences 04-131
As to the kind of experiment: Kinase TR-FRET assay, DYRK1B. The experiment is classed as biochemical.

In experiment [1] the target is T3, His-TEV-DYRK1A Kinase domain (aa127-485) (Homo sapiens, UniProt Q13627).
T3 construct: His-TEV-DYRK1A Kinase domain (aa127-485); His (N); TEV cleavage site (N)
As to the kind of experiment: Kinase ADP assay (ADP Hunter Plus). Format: biochemical.

For a further experiment, the target named is T4, phospho-Ser520-DYRK1A (Homo sapiens, UniProt Q13627).
T4 construct: full-length, wild-type human DYRK1A (NM_001396) with an HA tag; expressed in transfected cells; host or cells: human U2-OS osteosarcoma cells, pcDNA3.1 plasmid
The experiment is described as follows: Cellular DYRK1A autophosphorylation assay in U2-OS cells. The experiment is classed as cell-based. The conditions noted are these: 5 hours exposure, read-out: IC50 (μM) P-Ser520-Dyrk1A-Cell assay.

T2 sequence (Q9Y463 whole entry): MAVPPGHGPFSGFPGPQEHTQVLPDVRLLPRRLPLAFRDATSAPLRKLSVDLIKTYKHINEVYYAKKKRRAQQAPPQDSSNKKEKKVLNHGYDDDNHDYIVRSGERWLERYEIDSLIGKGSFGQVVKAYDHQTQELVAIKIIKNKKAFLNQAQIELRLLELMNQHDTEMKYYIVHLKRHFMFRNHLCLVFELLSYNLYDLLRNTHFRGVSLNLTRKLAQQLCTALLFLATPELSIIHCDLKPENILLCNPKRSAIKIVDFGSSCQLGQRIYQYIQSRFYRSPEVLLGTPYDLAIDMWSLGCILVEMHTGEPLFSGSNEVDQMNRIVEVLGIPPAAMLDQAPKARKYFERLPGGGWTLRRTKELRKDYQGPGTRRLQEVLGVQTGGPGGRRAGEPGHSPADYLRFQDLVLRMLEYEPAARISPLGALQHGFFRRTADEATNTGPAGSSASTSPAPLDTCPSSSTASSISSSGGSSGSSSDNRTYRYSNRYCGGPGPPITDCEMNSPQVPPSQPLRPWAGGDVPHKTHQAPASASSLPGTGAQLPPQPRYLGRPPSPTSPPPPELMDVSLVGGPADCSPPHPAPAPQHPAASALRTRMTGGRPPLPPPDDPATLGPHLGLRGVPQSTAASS

`Cc1cc(-c2c[nH]c3nc(C)nc(OCc4ccsc4)c23)ccn1` [Example 5, 2-methyl-5-(2-methylpyridin-4-yl)-4-(thiophen-3-ylmethoxy)-7H-pyrrolo[2,3-d]pyrimidine]: the IC50 on DYRK1A came out at 0.0094 µM; against DYRK1B, 0.0005 µM; in experiment [1], 0.015 µM.
For `Cc1nc(OCc2ccccc2)c2c(-c3ccncc3)c[nH]c2n1` [Example 11, 4-(benzyloxy)-2-methyl-5-(pyridin-4-yl)-7H-pyrrolo[2,3-d]pyrimidine] the same measures were 0.0173 µM, 0.0132 µM and 0.012 µM.
The matching figures for `Cc1nc(OCC2CCCC2)c2c(-c3ccncc3)c[nH]c2n1` [Example 15, 4-(cyclopentylmethoxy)-2-methyl-5-(pyridin-4-yl)-7H-pyrrolo[2,3-d]pyrimidine]: 0.0355 µM, 0.0143 µM and 0.032 µM.
Regarding `Cc1nc(OC(C)c2ccccc2)c2c(-c3ccnc(N)c3)c[nH]c2n1` (stereo not drawn) [Example 20, 4-[2-methyl-4-(1-phenylethoxy)-7H-pyrrolo[2,3-d]pyrimidin-5-yl]pyridin-2-amine], the 50% inhibitory concentration (IC50) was determined as 0.0197 µM against DYRK1A and 0.013 µM in experiment [1].
Consider `Cc1nc(OCc2ccc(C(C)C)cc2)c2c(-c3ccnc(N)c3)c[nH]c2n1` [Example 27, 4-{2-methyl-4-{(4-{propan-2-yl)benzyl]oxy}-7H-pyrrolo[2,3-d]pyrimidin-5-yl)pyridin-2-amine], for which the results for the IC50 (at DYRK1A; at DYRK1B; in experiment [1]) were 0.0444 µM, 0.0522 µM and 0.04 µM, respectively.
Regarding `Cc1cc(-c2c[nH]c3nc(C)nc(NCc4ccsc4)c23)ccn1` [Example 45, 2-methyl-5-(2-methylpyridin-4-yl)-N-(thiophen-3-ylmethyl)-7H-pyrrolo[2,3-d]pyrimidin-4-amine], the IC50 at DYRK1A is 0.2 µM; in experiment [1] it was 0.496 µM; on phospho-Ser520-DYRK1A it was 0.686 µM.
For `Cc1nc(NCC2CCCCC2)c2c(-c3ccnc(N)c3)c[nH]c2n1` [Example 48, 5-(2-aminopyridin-4-yl)-N-(cyclohexylmethyl)-2-methyl-7H-pyrrolo[2,3-d]pyrimidin-4-amine] the same measures were 0.043 µM, 0.044 µM and 0.208 µM.
For `Cc1nc(NCc2ccccc2F)c2c(-c3ccnc(N)c3)c[nH]c2n1` [Example 51, 5-(2-aminopyridin-4-yl)-N-(2-fluorobenzyl)-2-methyl-7H-pyrrolo[2,3-d]pyrimidin-4-amine] the same measures were 0.0029 µM, 0.013 µM and 0.126 µM.
The matching figures for `Cc1nc(NCc2ccccn2)c2c(-c3ccnc(N)c3)c[nH]c2n1` [Example 53, 5-(2-aminopyridin-4-yl)-2-methyl-N-(pyridin-2-ylmethyl)-7H-pyrrolo[2,3-d]pyrimidin-4-amine]: 0.0233 µM, 0.021 µM and 0.238 µM.
Turning to `Cc1nc(NCc2ccc(F)cc2)c2c(-c3ccnc(N)c3)c[nH]c2n1` [Example 54, 5-(2-aminopyridin-4-yl)-N-(4-fluorobenzyl)-2-methyl-7H-pyrrolo[2,3-d]pyrimidin-4-amine], the IC50 turned out to be 0.0129 µM on DYRK1A, 0.032 µM in experiment [1] and 0.511 µM at phospho-Ser520-DYRK1A.
In the case of `Cc1nc(NCc2cc(C)on2)c2c(-c3ccnc(N)c3)c[nH]c2n1` [Example 59, 5-(2-aminopyridin-4-yl)-2-methyl-N-[(5-methyl-1,2-oxazol-3-yl)methyl]-7H-pyrrolo[2,3-d]pyrimidin-4-amine], the IC50 was 0.0102 µM at DYRK1A, 0.0191 µM on DYRK1B, 0.042 µM in experiment [1] and 0.259 µM on phospho-Ser520-DYRK1A.
For `Cc1nc(NCc2ncccc2C)c2c(-c3ccnc(N)c3)c[nH]c2n1` [Example 60, 5-(2-aminopyridin-4-yl)-2-methyl-N-[(3-methylpyridin-2-yl)methyl]-7H-pyrrolo[2,3-d]pyrimidin-4-amine], the values for the IC50 (against DYRK1A; in experiment [1]; at phospho-Ser520-DYRK1A) were 0.003 µM, 0.011 µM and 0.0206 µM, respectively.
For `Cc1nc(NCc2ccc(F)cc2F)c2c(-c3ccnc(N)c3)c[nH]c2n1` [Example 63, 5-(2-aminopyridin-4-yl)-N-(2,4-difluorobenzyl)-2-methyl-7H-pyrrolo[2,3-d]pyrimidin-4-amine] the same measures were 0.0107 µM, 0.014 µM and 0.0408 µM.
On to `Cc1nc(NCc2ccccc2C(F)(F)F)c2c(-c3ccnc(N)c3)c[nH]c2n1` [Example 64, 5-(2-aminopyridin-4-yl)-2-methyl-N-[2-(trifluoromethyl)benzyl]-7H-pyrrolo[2,3-d]pyrimidin-4-amine], for which the IC50 against DYRK1A was 0.0059 µM; at DYRK1B it was 0.0093 µM; in experiment [1] it was 0.015 µM; on phospho-Ser520-DYRK1A, 0.234 µM.
Regarding `Cc1nc(NCC2CC2)c2c(-c3ccnc(N)c3)c[nH]c2n1` [Example 65, 5-(2-aminopyridin-4-yl)-N-(cyclopropymethyl)-2-methyl-7H-pyrrolo[2,3-d]pyrimidin-4-amine], the figures for the 50% inhibitory concentration (IC50) (on DYRK1A; in experiment [1]; on phospho-Ser520-DYRK1A) were 0.0709 µM, 0.069 µM and 0.898 µM, respectively.
As for `Cc1nc(NC(C)c2ccccn2)c2c(-c3ccnc(N)c3)c[nH]c2n1` (stereo not drawn) [Example 66, 5-(2-aminopyridin-4-yl)-2-methyl-N-[1-(pyridin-2-yl)ethyl]-7H-pyrrolo[2,3-d]pyrimidin-4-amine], the IC50 against DYRK1A was found to be 0.0107 µM; in experiment [1], 0.045 µM.
For `Cc1nc(NCc2ccc3cc[nH]c3c2)c2c(-c3ccnc(N)c3)c[nH]c2n1` [Example 72, 5-(2-aminopyridin-4-yl)-N-(1H-indol-6-ylmethyl)-2-methyl-7H-pyrrolo[2,3-d]pyrimidin-4-amine] the same measures were 0.021 µM and 0.013 µM.
Turning to `Cc1nc(NCc2cc(F)cc(F)c2F)c2c(-c3ccnc(N)c3)c[nH]c2n1` [Example 73, 5-(2-aminopyridin-4-yl)-2-methyl-N-(2,3,5-trifluorobenzyl)-7H-pyrrolo[2,3-d]pyrimidin-4-amine], the values for the IC50 (against DYRK1A; in experiment [1]) were 0.0059 µM and 0.038 µM, respectively.
For `Cc1nc(NCc2ccc(F)cc2C(F)(F)F)c2c(-c3ccnc(N)c3)c[nH]c2n1` [Example 75, 5-(2-ammopyridin-4-yl)-N-[4-fluoro-2-(trifluoromethyl)benzyl]-2-methyl-7H-pyrrolo[2,3-d]pyrimidin-4-amine] the same measures were 0.0143 µM and 0.037 µM.
Turning to `Cc1nc(N[C@@H]2CCc3ccccc32)c2c(-c3ccnc(N)c3)c[nH]c2n1` [Example 76, 5-(2-aminopyridin-4-yl)-N-[(1R)-2,3-dihydro-1H-inden-1-yl]-2-methyl-7H-pyrrolo[2,3-d]pyrimidin-4-amine], the IC50 at DYRK1A was 0.0063 µM; on DYRK1B, 0.0005 µM; in experiment [1], 0.01 µM; on phospho-Ser520-DYRK1A, 0.0672 µM.
The matching figures for `CCOc1ccccc1CNc1nc(C)nc2[nH]cc(-c3ccnc(N)c3)c12` [Example 79, 5-(2-aminopyridin-4-yl)-N-(2-ethoxybenzyl)-2-methyl-7H-pyrrolo[2,3-d]pyrimidin-4-amine]: 0.0021 µM, 0.008 µM, 0.008 µM and 0.105 µM.
Turning to `COc1cccc(C(F)(F)F)c1CNc1nc(C)nc2[nH]cc(-c3ccnc(N)c3)c12` [Example 80, 5-(2-aminopyridin-4-yl)-N-[2-methoxy-6-(trifluoromethyl)benzyl]-2-methyl-7H-pyrrolo[2,3-d]pyrimidin-4-amine], the 50% inhibitory concentration (IC50) on DYRK1A stood at 0.0059 µM; against DYRK1B it was 0.0106 µM; in experiment [1], 0.004 µM; at phospho-Ser520-DYRK1A, 0.0156 µM.
With `Cc1nc(NC(C)c2c(F)cccc2F)c2c(-c3ccnc(N)c3)c[nH]c2n1` (stereo not drawn) [Example 82, 5-(2-aminopyridin-4-yl)-N-[1-(2,6-difluorophenyl)ethyl]-2-methyl-7H-pyrrolo[2,3-d]pyrimidin-4-amine], the IC50 at DYRK1A is 0.001 µM; against DYRK1B it was 0.0199 µM; in experiment [1], 0.045 µM.
The matching figures for `Cc1nc(N[C@@H]2C[C@H]3CC[C@@H]2C3)c2c(-c3ccnc(N)c3)c[nH]c2n1` [Example 83, 5-(2-aminopyridin-4-yl)-N-[(1R,2R,4S)-bicyclo[2.2.1]hept-2-yl]-2-methyl-7H-pyrrolo[2,3-d]pyrimidin-4-amine]: 0.0006 µM, 0.0404 µM and 0.081 µM.
Turning to `Cc1nc(NCc2ccccc2OC(F)(F)F)c2c(-c3ccnc(N)c3)c[nH]c2n1` [Example 89, 5-(2-aminopyridin-4-yl)-2-methyl-N-[2-(trifluoromethoxy)benzyl]-7H-pyrrolo[2,3-d]pyrimidin-4-amine], the IC50 at DYRK1A amounted to 0.0492 µM; in experiment [1], 0.077 µM.
For the compound `Cc1nc(NCc2c(C)noc2C)c2c(-c3ccnc(N)c3)c[nH]c2n1` [Example 95, 5-(2-aminopyridin-4-yl)-N-[(3,5-dimethyl-1,2-oxazol-4-yl)methyl]-2-methyl-7H-pyrrolo[2,3-d]pyrimidin-4-amine], the IC50 amounted to 0.0979 µM against DYRK1A, 0.066 µM in experiment [1] and 0.534 µM at phospho-Ser520-DYRK1A.
Consider `Cc1nc(Nc2ccc3c(c2)OCO3)c2c(-c3ccnc(N)c3)c[nH]c2n1` [Example 132, 5-(2-aminopyridin-4-yl)-N-(1,3-benzodioxol-5-yl)-2-methyl-7H-pyrrolo[2,3-d]pyrimidin-4-amine], for which the figures for the IC50 (at DYRK1A; in experiment [1]) were 0.0338 µM and 0.122 µM, respectively.
Regarding `N#Cc1nc(-c2ccc3c(c2)OCO3)c2c(-c3cc(N)nc(N)c3)c[nH]c2n1` [Example 158, 4-(1,3-benzodioxol-5-yl)-5-(2,6-diaminopyridin-4-yl)-7H-pyrrolo[2,3-d]pyrimidine-2-carbonitrile], the values for the half-maximal inhibitory concentration (IC50) (against DYRK1A; in experiment [1]) were 0.0655 µM and 0.15 µM, respectively.

The values above are taken from patent publication US20180273538A1, “PYRROLO[2,3-d]PYRIMIDINE DERIVATIVES, A PROCESS FOR THEIR PREPARATION AND PHARMACEUTICAL COMPOSITIONS CONTAINING THEM” (LES LABORATOIRES SERVIER, priority 2015, published 2018).
